Reference: PubChem BioAssay (NCI)
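Where inhibition never reached the appropriate level, the endpoint shown equals the highest concentration tested. Otherwise, values were interpolated linearly from a five-concentration, 48-hour dose response in 96-well plates. The concentration for 50% growth inhibition is given as GI50. TGI: concentration producing complete growth inhibition.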

Tests used:
Assay in all cases: NCI tumour cell line growth inhibition, 48 h
786-0 renal = tested on: 786-0 renal
A498 renal = tested on: A498 renal
A549 NSCLC = tested on: A549 NSCLC
ACHN renal = tested on: ACHN renal
BT-549 breast = tested on: BT-549 breast
CAKI-1 renal = tested on: CAKI-1 renal
CCRF-CEM leukemia = tested on: CCRF-CEM leukemia
COLO 205 colon = tested on: COLO 205 colon
DU-145 prostate = tested on: DU-145 prostate
EKVX NSCLC = tested on: EKVX NSCLC
HCC-2998 colon = tested on: HCC-2998 colon
HCT-116 colon = tested on: HCT-116 colon
HCT-15 colon = tested on: HCT-15 colon
HL-60(TB) leukemia = tested on: HL-60(TB) leukemia
HOP-62 NSCLC = tested on: HOP-62 NSCLC
HOP-92 NSCLC = tested on: HOP-92 NSCLC
HS 578T breast = tested on: HS 578T breast
HT29 colon = tested on: HT29 colon
IGROV1 ovarian = tested on: IGROV1 ovarian
K-562 leukemia = tested on: K-562 leukemia
KM12 colon = tested on: KM12 colon
LOX IMVI melanoma = tested on: LOX IMVI melanoma
M14 melanoma = tested on: M14 melanoma
MCF7 breast = tested on: MCF7 breast
MDA-MB-231 breast = tested on: MDA-MB-231 breast
MDA-MB-435 = tested on: MDA-MB-435
MOLT-4 leukemia = tested on: MOLT-4 leukemia
NCI-H226 lung = tested on: NCI-H226 lung
NCI-H23 lung = tested on: NCI-H23 lung
NCI-H460 lung = tested on: NCI-H460 lung
NCI-H522 lung = tested on: NCI-H522 lung
NCI/ADR-RES ovarian = tested on: NCI/ADR-RES ovarian
OVCAR-3 ovarian = tested on: OVCAR-3 ovarian
OVCAR-4 ovarian = tested on: OVCAR-4 ovarian
OVCAR-5 ovarian = tested on: OVCAR-5 ovarian
OVCAR-8 ovarian = tested on: OVCAR-8 ovarian
PC-3 prostate = tested on: PC-3 prostate
RPMI-8226 leukemia = tested on: RPMI-8226 leukemia
RXF 393 renal = tested on: RXF 393 renal
SF-268 CNS = tested on: SF-268 CNS
SF-295 CNS = tested on: SF-295 CNS
SF-539 CNS = tested on: SF-539 CNS
SK-MEL-2 melanoma = tested on: SK-MEL-2 melanoma
SK-MEL-28 melanoma = tested on: SK-MEL-28 melanoma
SK-MEL-5 melanoma = tested on: SK-MEL-5 melanoma
SK-OV-3 ovarian = tested on: SK-OV-3 ovarian
SN12C renal = tested on: SN12C renal
SNB-19 CNS = tested on: SNB-19 CNS
SNB-75 CNS = tested on: SNB-75 CNS
SR leukemia = tested on: SR leukemia
SW-620 colon = tested on: SW-620 colon
T-47D breast = tested on: T-47D breast
TK-10 renal = tested on: TK-10 renal
U251 CNS = tested on: U251 CNS
UACC-257 melanoma = tested on: UACC-257 melanoma
UACC-62 melanoma = tested on: UACC-62 melanoma
UO-31 renal = tested on: UO-31 renal
MALME-3M melanoma = tested on: MALME-3M melanoma

ClCCc1ccccc1CC1=NCCc2ccccc21
TGI (786-0 renal): > 100 µM
TGI (A498 renal): > 100 µM
TGI (A549 NSCLC): > 100 µM
TGI (ACHN renal): > 100 µM
TGI (BT-549 breast): 97.9 µM
TGI (CAKI-1 renal): 92.4 µM
TGI (CCRF-CEM leukemia): > 100 µM
TGI (COLO 205 colon): 63.5 µM
TGI (DU-145 prostate): > 100 µM
TGI (EKVX NSCLC): > 100 µM
TGI (HCC-2998 colon): 62.5 µM
TGI (HCT-116 colon): > 100 µM
TGI (HCT-15 colon): > 100 µM
TGI (HL-60(TB) leukemia): > 100 µM
TGI (HOP-62 NSCLC): > 100 µM
TGI (HOP-92 NSCLC): > 100 µM
TGI (HS 578T breast): > 100 µM
TGI (HT29 colon): 46.3 µM
TGI (IGROV1 ovarian): > 100 µM
TGI (K-562 leukemia): > 100 µM
TGI (KM12 colon): > 100 µM
TGI (LOX IMVI melanoma): > 100 µM
TGI (M14 melanoma): 71.5 µM
TGI (MCF7 breast): > 100 µM
TGI (MDA-MB-231 breast): 96.2 µM
TGI (MDA-MB-435): > 100 µM
TGI (MOLT-4 leukemia): > 100 µM
TGI (NCI-H226 lung): > 100 µM
TGI (NCI-H23 lung): 74.5 µM
TGI (NCI-H460 lung): 62.7 µM
TGI (NCI-H522 lung): 44 µM
TGI (NCI/ADR-RES ovarian): 75.6 µM
TGI (OVCAR-3 ovarian): > 100 µM
TGI (OVCAR-4 ovarian): > 100 µM
TGI (OVCAR-5 ovarian): > 100 µM
TGI (OVCAR-8 ovarian): > 100 µM
TGI (PC-3 prostate): > 100 µM
TGI (RPMI-8226 leukemia): 45.9 µM
TGI (RXF 393 renal): 61.8 µM
TGI (SF-268 CNS): > 100 µM
TGI (SF-295 CNS): > 100 µM
TGI (SF-539 CNS): > 100 µM
TGI (SK-MEL-2 melanoma): 39.1 µM
TGI (SK-MEL-28 melanoma): > 100 µM
TGI (SK-MEL-5 melanoma): 47.9 µM
TGI (SK-OV-3 ovarian): > 100 µM
TGI (SN12C renal): > 100 µM
TGI (SNB-19 CNS): > 100 µM
TGI (SNB-75 CNS): 96.8 µM
TGI (SR leukemia): > 100 µM
TGI (SW-620 colon): > 100 µM
TGI (T-47D breast): > 100 µM
TGI (TK-10 renal): > 100 µM
TGI (U251 CNS): > 100 µM
TGI (UACC-257 melanoma): > 100 µM
TGI (UACC-62 melanoma): 98.9 µM
TGI (UO-31 renal): 38.3 µM

Cc1ccc2c(c1)-c1oc(=O)c(-c3cc4ccccc4oc3=O)cc1C(O)O2 (centres undefined)
GI50 (786-0 renal): 20.9 µM
TGI (786-0 renal): 39.7 µM
GI50 (A498 renal): 16.2 µM
TGI (A498 renal): 30.3 µM
GI50 (A549 NSCLC): 29.9 µM
TGI (A549 NSCLC): > 100 µM
GI50 (ACHN renal): 10.2 µM
TGI (ACHN renal): 24.4 µM
GI50 (BT-549 breast): 12.7 µM
TGI (BT-549 breast): 25.5 µM
GI50 (CAKI-1 renal): 20.5 µM
TGI (CAKI-1 renal): 46.7 µM
GI50 (CCRF-CEM leukemia): 42.2 µM
TGI (CCRF-CEM leukemia): > 100 µM
GI50 (COLO 205 colon): 18.7 µM
TGI (COLO 205 colon): 41.7 µM
GI50 (DU-145 prostate): 11.6 µM
TGI (DU-145 prostate): 23.8 µM
GI50 (EKVX NSCLC): 11.8 µM
TGI (EKVX NSCLC): 25.7 µM
GI50 (HCC-2998 colon): 18.5 µM
TGI (HCC-2998 colon): 36.2 µM
GI50 (HCT-116 colon): 18 µM
TGI (HCT-116 colon): 33 µM
GI50 (HCT-15 colon): 23.9 µM
TGI (HCT-15 colon): 48.8 µM
GI50 (HOP-62 NSCLC): 22.9 µM
TGI (HOP-62 NSCLC): 41.4 µM
GI50 (HOP-92 NSCLC): 17.3 µM
TGI (HOP-92 NSCLC): 40.5 µM
GI50 (HS 578T breast): 24 µM
TGI (HS 578T breast): 47.7 µM
GI50 (HT29 colon): 40.8 µM
TGI (HT29 colon): > 100 µM
GI50 (IGROV1 ovarian): 17.4 µM
TGI (IGROV1 ovarian): 52.1 µM
GI50 (K-562 leukemia): 26.2 µM
TGI (K-562 leukemia): 76.6 µM
GI50 (KM12 colon): 19.6 µM
TGI (KM12 colon): 48.3 µM
GI50 (LOX IMVI melanoma): 17.6 µM
TGI (LOX IMVI melanoma): 31.4 µM
GI50 (M14 melanoma): 21.4 µM
TGI (M14 melanoma): 40.6 µM
GI50 (MALME-3M melanoma): 10.2 µM
TGI (MALME-3M melanoma): 28.2 µM
GI50 (MCF7 breast): 31.7 µM
TGI (MCF7 breast): > 100 µM
GI50 (MDA-MB-231 breast): 15.2 µM
TGI (MDA-MB-231 breast): 43.7 µM
GI50 (MDA-MB-435): 19.2 µM
TGI (MDA-MB-435): 45.6 µM
GI50 (MOLT-4 leukemia): 27.8 µM
TGI (MOLT-4 leukemia): 74.4 µM
GI50 (NCI-H226 lung): 18.9 µM
TGI (NCI-H226 lung): 40.5 µM
GI50 (NCI-H23 lung): 23.5 µM
TGI (NCI-H23 lung): 45.8 µM
GI50 (NCI-H460 lung): 22.3 µM
TGI (NCI-H460 lung): > 100 µM
GI50 (NCI-H522 lung): 19.4 µM
TGI (NCI-H522 lung): 48.1 µM
GI50 (NCI/ADR-RES ovarian): 23.2 µM
TGI (NCI/ADR-RES ovarian): 52.3 µM
GI50 (OVCAR-3 ovarian): 22.2 µM
TGI (OVCAR-3 ovarian): 42.1 µM
GI50 (OVCAR-4 ovarian): 36.3 µM
TGI (OVCAR-4 ovarian): > 100 µM
GI50 (OVCAR-5 ovarian): 20.8 µM
TGI (OVCAR-5 ovarian): 49.8 µM
GI50 (OVCAR-8 ovarian): 19.9 µM
TGI (OVCAR-8 ovarian): 62.5 µM
GI50 (PC-3 prostate): 45.2 µM
TGI (PC-3 prostate): > 100 µM
GI50 (RPMI-8226 leukemia): 35.1 µM
TGI (RPMI-8226 leukemia): > 100 µM
GI50 (RXF 393 renal): 12.8 µM
TGI (RXF 393 renal): 48.2 µM
GI50 (SF-268 CNS): 34.2 µM
TGI (SF-268 CNS): > 100 µM
GI50 (SF-295 CNS): 16.3 µM
TGI (SF-295 CNS): 38.2 µM
GI50 (SF-539 CNS): 13.3 µM
TGI (SF-539 CNS): 26 µM
GI50 (SK-MEL-2 melanoma): 16.9 µM
TGI (SK-MEL-2 melanoma): 42.1 µM
GI50 (SK-MEL-28 melanoma): 30.2 µM
TGI (SK-MEL-28 melanoma): 75.2 µM
GI50 (SK-MEL-5 melanoma): 19.1 µM
TGI (SK-MEL-5 melanoma): 33.2 µM
GI50 (SN12C renal): 19.7 µM
TGI (SN12C renal): 45 µM
GI50 (SNB-19 CNS): 22.6 µM
TGI (SNB-19 CNS): 71 µM
GI50 (SNB-75 CNS): 15.6 µM
TGI (SNB-75 CNS): 47 µM
GI50 (SR leukemia): 22.9 µM
TGI (SR leukemia): 82.8 µM
GI50 (SW-620 colon): 18.9 µM
TGI (SW-620 colon): 33.5 µM
GI50 (T-47D breast): 21.3 µM
TGI (T-47D breast): 41.7 µM
GI50 (TK-10 renal): 16.3 µM
TGI (TK-10 renal): 34.9 µM
GI50 (U251 CNS): 13.2 µM
TGI (U251 CNS): 26.6 µM
GI50 (UACC-257 melanoma): 34 µM
TGI (UACC-257 melanoma): 92.6 µM
GI50 (UACC-62 melanoma): 17.4 µM
TGI (UACC-62 melanoma): 35.6 µM
GI50 (UO-31 renal): 16.7 µM
TGI (UO-31 renal): 37.3 µM
